Some results are limits rather than exact numbers.

One experiment deals with T1, Protease (Human immunodeficiency virus 1, UniProt Q9YQ12). The experiment in a line: Inhibition of wild type C-South African Human immunodeficiency virus 1 protease using chromogenic peptide H-1048 as substrate by UV spectrophotometric analysis. Details: species or system C-SA.
T1 sequence (Q9YQ12 whole entry): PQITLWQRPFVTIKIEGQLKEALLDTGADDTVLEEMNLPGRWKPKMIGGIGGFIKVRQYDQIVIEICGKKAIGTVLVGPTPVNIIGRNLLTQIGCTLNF
In the case of `O=C(CC1(O)C2C3CC4C5C3C1C5C(O)(CC(=O)N[C@@H](Cc1c[nH]cn1)C(=O)O)C42)N[C@@H](Cc1c[nH]cn1)C(=O)O` (some centres not stated), the IC50 was > 60 µM.

With `O=C(O)[C@@H]1CCCN1C(=O)CC1(O)C2C3CC4C5C3C1C5C(O)(CC(=O)N1CCC[C@H]1C(=O)O)C42` (some centres not stated), the IC50 was > 60 µM.

For the compound `NC(=O)[C@@H]1CCCN1C(=O)CC1(O)C2C3CC4C5C3C1C5C(O)(CC(=O)N1CCC[C@H]1C(N)=O)C42` (some centres not stated), the IC50 was > 60 µM.

In turn, `O=C(CC1(O)C2C3CC4C5C3C1C5C(O)(CC(=O)N[C@@H](Cc1c[nH]c3ccccc13)C(=O)O)C42)N[C@@H](Cc1c[nH]c2ccccc12)C(=O)O` (some centres not stated) gave an IC50 of 5 µM.

`O=C(CC1(O)C2C3CC4C5C3C1C5C(O)(CC(=O)N[C@@H](Cc1ccc(O)cc1)C(=O)O)C42)N[C@@H](Cc1ccc(O)cc1)C(=O)O` (some centres not stated) came in with an IC50 of 10 µM.

For `O=C(O)CN(Cc1ccccc1)C(=O)CC1(O)C2C3CC4C5C3C1C5C(O)(CC(=O)N(CC(=O)O)Cc1ccccc1)C42` (configuration not stated), the IC50 was > 60 µM.

The compound `O=C(CC1(O)C2C3CC4C5C3C1C5C(O)(CC(=O)N[C@H](C(=O)O)c1ccccc1)C42)N[C@H](C(=O)O)c1ccccc1` (some centres not stated) had an IC50 of 5 µM. This counts as single-digit micromolar.

`CC(C)[C@H](NC(=O)CC1(O)C2C3CC4C5C3C1C5C(O)(CC(=O)N[C@H](C(=O)O)C(C)C)C42)C(=O)O` (some centres not stated) registered an IC50 of 10 µM.

`O=C(CC1(O)C2C3CC4C5C3C1C5C(O)(CC(=O)N[C@@H](Cc1ccccc1)C(=O)O)C42)N[C@@H](Cc1ccccc1)C(=O)O` (some centres not stated): the IC50 is > 60 µM.

The next experiment concerns the target T1, Protease. In words: Inhibition of Human immunodeficiency virus 1 protease.
The compound `Nc1cccc(CN2C(=O)N(Cc3cccc(N)c3)[C@H](Cc3ccccc3)[C@H](O)[C@@H](O)[C@H]2Cc2ccccc2)c1` [MOZENAVIR] returned a Ki of 0.0003 µM.

For another experiment, the target named is T1, Protease. The experiment in a line: Inhibition of wild type C-South African Human immunodeficiency virus 1 protease. Details: species or system C-SA.
`CC(C)[C@H](NC12OC3(O)C4C5CC(C6C5C3C61)C42)C(=O)N[C@@H](C)C(=O)O` (some centres not stated): the IC50 worked out at 0.6 µM.

In turn, `CC[C@H](C)[C@H](NC(=O)[C@H](C)NC(=O)[C@H](CCC(=O)O)NC12NC(=O)C3(O)C4C5CC(C6C5C3C61)C42)C(=O)N[C@@H](CO)C(=O)O` (some centres not stated) came in with an IC50 of 0.078 µM.

Broadly, the IC50 is the concentration at which inhibition is half-maximal. Higher therefore signals a need for much substance. The Ki is the equilibrium dissociation constant of an inhibitor or competing ligand from its target. Lower therefore signals tighter binding.

The values are drawn from ChEMBL document CHEMBL3046831, “Novel PCU cage diol peptides as potential targets against wild-type CSA HIV-1 protease: synthesis, biological screening and molecular modelling studies” (Med Chem Res, 2013).
